Results as given in article PMC10781097, “Chemical Profile and Health-Promoting Activities of Crataegus laciniata (Rosaceae) Flowers” (Plants, 2023).

Assays:
[1] = DPPH radical scavenging activity; conditions: mean ± SD, n = 3
Protocol: DPPH scavenging activity was measured using the method of Xiong et al., albeit with minor modifications. […] After shaking, the mixture was stored in the dark for 30 min at room temperature, and, finally, the absorbance was measured at 517 nm. Ascorbic acid served as the positive control. The percentage of DPPH scavenging activity was calculated using the following formula: Inhibition(%)=(C-S)/C∗100 where C = the absorbance of the control, and S = the absorbance of the extract.

[2] = system: TYR; set-up: method as in PMID 30458808, PMID 26059994; conditions: cited from earlier work
[3] = system: α-glucosidase; conditions: cited from earlier work
[4] = TEAC test (ABTS radical scavenging activity); conditions: mean ± SD, n = 3
Protocol: The free radical scavenging activities of extracts were also determined via the TEAC test using ABTS radical following the method reported by Wang et al.. […] Trolox was used as a positive control. The percentage of ABTS free radical scavenging activity was calculated using the following formula: Inhibition(%)=(C−S)/C∗100 Data were expressed in terms of the decrease in ABTS scavenging activity by 50%.

[5] = system: α-amylase; set-up: method as in PMID 36115306; conditions: cited from earlier work
[6] = system: zebrafish embryos; experiment: Zebrafish embryo pigmentation (whitening effect); type: in vivo, Danio rerio; conditions: 30 µg/mL, 72 hpf, control = 100% pigmentation
Protocol: Adult zebrafish specimens (male and female) were maintained in a temperature-controlled aquarium (28.5 °C) with light-dark cycles and regularly fed with Artemia salina larvae. After natural deposition, the laid eggs were collected and incubated at 28.5 °C. After 24 h, all the eggs were observed under a stereomicroscope (SMZ-171 Series, Motic, Hong Kong, China) to select the fertilized ones. The vitality test and whitening effect were evaluated in vivo on zebrafish embryos according to the following method. […] Control embryos were incubated with embryo water (negative control). After 48 h of incubation at 28 °C (72 hpf), the effects of the treatment were observed using a stereomicroscope (SMZ-171 Series, Motic) equipped with a digital camera (Moticam® 5 plus) for image acquisition. The abnormal phenotypes and mortality of each treated group were documented. […] The images were converted to gray scale, and the pixel measurements analyzer program was used to count the area of the zebrafish image pigmentation. The quantification of pigmentation was expressed as a percentage change compared to the control group, which was considered to be 100%. All experiments were performed in compliance with the European Directive 2010/63/EU and following the ethical guidelines described by the National Institute of Health Guide for the Care and Use of Laboratory Animals.

O=C1O[C@H]([C@@H](O)CO)C(O)=C1O [Ascorbic acid]
DPPH (IC50 µg/mL) [1]: 16.95 ± 1.20 µg/mL

O=c1cc(-c2ccc(O)cc2)oc2c([C@@H]3O[C@H](CO)[C@@H](O)[C@H](O)[C@H]3O)c(O)cc(O)c12 [vitexin, Vitexin]
TYR inhibition [2]: effective TYR inhibitors | mechanism of action on α-glucosidase [3]: uncompetitive

Cc1c(C)c2c(c(C)c1O)CCC(C)(C(=O)O)O2 (stereo not shown) [Trolox]
TEAC (IC50 µg/mL) [4]: 13.08 ± 0.02 µg/mL

O=c1c(O[C@@H]2O[C@H](CO)[C@H](O)[C@H](O)[C@H]2O)c(-c2ccc(O)c(O)c2)oc2cc(O)cc(O)c12 [hyperoside, Hyperoside]
TYR inhibition [2]: effective TYR inhibitors | manner of α-amylase inhibition [5]: competitive

NC(=S)Nc1ccccc1 [1-Phenyl-2-thiourea (PTU), 1-Phenyl-2-thiourea]
embryo pigmentation, % vs. control [6]: 36.00%
